Test results published in patent US10023570B2 (Array BioPharma, Inc., priority 2015, dated 2018).
Counter-ions that a name gives are not always drawn.

Target: human KDR protein in HEK-293 cells (Homo sapiens (Human), UniProt P35968)
Assay: KDR Cell Assay (phospho-KDR in HEK-293 cells expressing inducible KDR)
Format: cell-based
Conditions: pKDR Cell HEK 10% FBS IC50, HEK-293 cells expressing inducible KDR, VEGF stimulated
Method in brief: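 HEK-293 cells with inducible human KDR were treated with compound for 1 h in DMEM (0.25% DMSO final), then lysed. Phospho-KDR was quantified by Meso Scale immunoassay, expressed as percent of control, and IC50 taken where a 4-parameter logistic fit crossed 50 POC.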

human KDR protein in HEK-293 cells, sequence (P35968 20-1356): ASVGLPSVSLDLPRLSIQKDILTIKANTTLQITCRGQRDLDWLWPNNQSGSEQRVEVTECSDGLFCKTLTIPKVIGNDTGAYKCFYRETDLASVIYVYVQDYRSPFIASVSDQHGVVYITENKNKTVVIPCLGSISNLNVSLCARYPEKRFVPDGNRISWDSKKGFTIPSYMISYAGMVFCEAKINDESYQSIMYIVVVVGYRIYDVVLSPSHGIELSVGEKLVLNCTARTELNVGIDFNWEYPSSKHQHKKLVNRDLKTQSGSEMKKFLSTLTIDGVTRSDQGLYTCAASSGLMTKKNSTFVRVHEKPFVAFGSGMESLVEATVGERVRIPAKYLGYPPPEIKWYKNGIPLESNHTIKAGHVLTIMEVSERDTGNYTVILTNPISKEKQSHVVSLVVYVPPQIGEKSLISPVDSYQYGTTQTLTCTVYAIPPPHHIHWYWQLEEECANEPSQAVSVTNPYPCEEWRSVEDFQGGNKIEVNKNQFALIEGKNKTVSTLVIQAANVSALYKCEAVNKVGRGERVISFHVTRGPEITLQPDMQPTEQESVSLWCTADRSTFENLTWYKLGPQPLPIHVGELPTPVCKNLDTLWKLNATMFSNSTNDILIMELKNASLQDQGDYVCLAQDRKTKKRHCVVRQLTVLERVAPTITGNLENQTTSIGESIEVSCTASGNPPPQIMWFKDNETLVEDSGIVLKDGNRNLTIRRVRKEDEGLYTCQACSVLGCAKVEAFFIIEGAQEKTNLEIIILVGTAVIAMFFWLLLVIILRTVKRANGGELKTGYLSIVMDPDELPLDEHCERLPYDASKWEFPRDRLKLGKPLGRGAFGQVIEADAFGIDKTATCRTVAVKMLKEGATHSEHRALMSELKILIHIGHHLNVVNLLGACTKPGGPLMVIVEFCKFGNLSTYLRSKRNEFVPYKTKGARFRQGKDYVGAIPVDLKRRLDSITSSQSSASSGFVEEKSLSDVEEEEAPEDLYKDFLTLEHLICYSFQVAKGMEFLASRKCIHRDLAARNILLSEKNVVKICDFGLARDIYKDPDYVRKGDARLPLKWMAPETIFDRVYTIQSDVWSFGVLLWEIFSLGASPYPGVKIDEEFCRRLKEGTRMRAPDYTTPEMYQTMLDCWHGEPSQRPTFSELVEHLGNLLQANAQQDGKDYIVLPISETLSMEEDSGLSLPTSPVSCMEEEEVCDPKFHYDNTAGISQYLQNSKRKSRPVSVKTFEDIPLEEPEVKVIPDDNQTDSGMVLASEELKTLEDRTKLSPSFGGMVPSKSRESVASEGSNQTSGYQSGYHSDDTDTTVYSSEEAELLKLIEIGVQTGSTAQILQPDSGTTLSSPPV

| Compound | IC50 | IC50 (10% FBS) |
| --- | --- | --- |
| Cn1cc(-c2cc(-c3ccc(N4CCC5(CCOC5)C4)nc3)c3c(C#N)cnn3c2)cn1 (stereo not drawn) [Example 530, 4-(6-(2-oxa-7-azaspiro[4.4]nonan-7-yl)pyridin-3-yl)-6-(1-methyl-1H-pyrazol-4-yl)pyrazolo[1,5-a]pyridine-3-carbonitrile 2,2,2-trifluoroacetate] | 1540 nM |  |
| Cn1cc(-c2cc(-c3ccc(N4CCC5(CC4)CN(C(=O)C4CCC4)C5)nc3)c3c(C#N)cnn3c2)cn1 [Example 493, 4-(6-(2-(cyclobutanecarbonyl)-2,7-diazaspiro[3.5]nonan-7-yl)pyridin-3-yl)-6-(1-methyl-1H-pyrazol-4-yl)pyrazolo[1,5-a]pyridine-3-carbonitrile] | 928 nM |  |
| Cn1cc(-c2cc(-c3ccc(N4CCN(C(=O)[C@H]5CC[C@@H](O)C5)CC4)nc3)c3c(C#N)cnn3c2)cn1 [Example 12, 4-(6-(4-((1S,3R)-3-hydroxycyclopentane-1-carbonyl)piperazin-1-yl)pyridin-3-yl)-6-(1-methyl-1H-pyrazol-4-yl)pyrazolo[1,5-a]pyridine-3-carbonitrile] |  | 1190 nM |
| CC(C)[C@@H](O)C(=O)N1CCC2(CCN(c3ccc(-c4cc(-c5cnn(C)c5)cn5ncc(C#N)c45)cn3)CC2)C1 [Example 206, (R)-4-(6-(2-(2-hydroxy-3-methylbutanoyl)-2,8-diazaspiro[4.5]decan-8-yl)pyridin-3-yl)-6-(1-methyl-1H-pyrazol-4-yl)pyrazolo[1,5-a]pyridine-3-carbonitrile] |  | 1200 nM |
| Cn1cc(-c2cc(-c3ccc(N4CCC5(CC4)CC(NC(=O)OC(C)(C)C)C5)nc3)c3c(C#N)cnn3c2)cn1 [Example 516, tert-butyl (7-(5-(3-cyano-6-(1-methyl-1H-pyrazol-4-yl)pyrazolo[1,5-a]pyridin-4-yl)pyridin-2-yl)-7-azaspiro[3.5]nonan-2-yl)carbamate] | 173 nM |  |
| Cn1cc(-c2cc(-c3ccc(N4[C@@H]5CC[C@H]4C[C@@H](O)C5)nc3)c3c(C#N)cnn3c2)cn1 [Example 199, 4-(6-((1R,3r,5S)-3-hydroxy-8-azabicyclo[3.2.1]octan-8-yl)pyridin-3-yl)-6-(1-methyl-1H-pyrazol-4-yl)pyrazolo[1,5-a]pyridine-3-carbonitrile] |  | 565 nM |
| CO[C@H]1C[C@H](NC(=O)C2CCN(c3ccc(-c4cc(-c5cnn(C)c5)cn5ncc(C#N)c45)cn3)CC2)C1 [Example 240, 1-(5-(3-cyano-6-(1-methyl-1H-pyrazol-4-yl)pyrazolo[1,5-a]pyridin-4-yl)pyridin-2-yl)-N-((1r,3r)-3-methoxycyclobutyl) piperidine-4-carboxamide] |  | 897 nM |
| Cn1cc(-c2cc(-c3ccc(N4CCN(C(=O)C5(c6cccnc6)CC5)CC4)nc3)c3c(C#N)cnn3c2)cn1 [Example 369, 6-(1-methyl-1H-pyrazol-4-yl)-4-(6-(4-(1-(pyridine-3-yl)cyclopropane-1-carbonyl)piperazin-1-yl)pyridin-3-yl)pyrazolo[1,5-a]pyridine-3-carbonitrile bis(2,2,2-trifluoroacetate)] |  | 1270 nM |
| Cn1cc(-c2cc(-c3ccc(N4CCN(C(=O)N5CCC6(CC6)C5)CC4)nc3)c3c(C#N)cnn3c2)cn1 [Example 117, 4-(6-(4-(5-azaspiro[2.4]heptane-5-carbonyl)piperazin-1-yl)pyridin-3-yl)-6-(1-methyl-1H-pyrazol-4-yl)pyrazolo[1,5-a]pyridine-3-carbonitrile] |  | 354 nM |
| Cn1cc(-c2cc(-c3ccc(N4CCN(C(=O)[C@H]5CCCO5)CC4)nc3)c3c(C#N)cnn3c2)cn1 [Example 58, (R)-6-(1-methyl-1H-pyrazol-4-yl)-4-(6-(4-(tetrahydrofuran-2-carbonyl)piperazin-1-yl)pyridin-3-yl)pyrazolo[1,5-a]pyridine-3-carbonitrile] |  | 439 nM |
| Cn1cc(-c2cc(-c3ccc(N4CC5CCC(C4)N5)nc3)c3c(C#N)cnn3c2)cn1 [Example 174, 4-(6-(3,8-diazabicyclo[3.2.1]octan-3-yl)pyridin-3-yl)-6-(1-methyl-1H-pyrazol-4-yl)pyrazolo[1,5-a]pyridine-3-carbonitrile dihydrochloride] |  | 1220 nM |
| Cn1cc(-c2cc(-c3ccc(N4CCNC5(CC5)C4)nc3)c3c(C#N)cnn3c2)cn1 [Example 167, 4-(6-(4,7-diazaspiro[2.5]octan-7-yl)pyridin-3-yl)-6-(1-methyl-1H-pyrazol-4-yl)pyrazolo[1,5-a]pyridine-3-carbonitrile dihydrochloride] |  | 780 nM |

Next, values leading:

| IC50 | IC50 (10% FBS) | Compound |
| --- | --- | --- |
| 263 nM |  | Cn1cc(-c2cc(-c3ccc(N4CCN(CCc5ccccc5)CC4)nc3)c3c(C#N)cnn3c2)cn1 [Example 411, 6-(1-methyl-1H-pyrazol-4-yl)-4-(6-(4-phenethylpiperazin-1-yl)pyridin-3-yl)pyrazolo[1,5-a]pyridine-3-carbonitrile] |
|  | 643 nM | C[C@H](C(=O)N1CCN(c2ccc(-c3cc(-c4cnn(C)c4)cn4ncc(C#N)c34)cn2)CC1)c1ccccc1 [Example 15, (S)-6-(1-methyl-1H-pyrazol-4-yl)-4-(6-(4-(2-phenylpropanoyl)piperazin-1-yl)pyridin-3-yl)pyrazolo[1,5-a]pyridine-3-carbonitrile] |
| 217 nM |  | N#Cc1cnn2cc(-c3cnn(C4CNC4)c3)cc(-c3ccc(N4CCN(Cc5ccccc5)CC4)nc3)c12 [Example 595, 6-(1-(azetidin-3-yl)-1H-pyrazol-4-yl)-4-(6-(4-benzylpiperazin-1-yl)pyridin-3-yl)pyrazolo[1,5-a]pyridine-3-carbonitrile dihydrochloride] |
| 1250 nM |  | Cn1cc(-c2cc(-c3ccc(N4CCN(Cc5ccc(F)cc5F)CC4)nc3)c3c(C#N)cnn3c2)cn1 [Example 426, 4-(6-(4-(2,4-difluorobenzyl)piperazin-1-yl)pyridin-3-yl)-6-(1-methyl-1H-pyrazol-4-yl)pyrazolo[1,5-a]pyridine-3-carbonitrile] |
| ≥ 5000 nM |  | Cc1cc(-c2cc(-c3ccc(N4CCN(Cc5ccccc5)CC4)nc3)c3c(C#N)cnn3c2)on1 [Example 629, 4-(6-(4-benzylpiperazin-1-yl)pyridine-3-yl)-6-(3-methylisoxazol-5-yl)pyrazolo[1,5-a]pyridine-3-carbonitrile] |
| 692 nM |  | Cc1cc(C)nc(CN2CCN(c3ccc(-c4cc(-c5cnn(C)c5)cn5ncc(C#N)c45)cn3)CC2)n1 [Example 401, 4-(6-(4-((4,6-dimethylpyrimidin-2-yl)methyl)piperazin-1-yl)pyridin-3-yl)-6-(1-methyl-1H-pyrazol-4-yl)pyrazolo[1,5-a]pyridine-3-carbonitrile] |
|  | 1660 nM | Cn1cc(-c2cc(-c3ccc(N4CCN(C(=O)C5(c6ccc(Cl)cc6Cl)CC5)CC4)nc3)c3c(C#N)cnn3c2)cn1 [Example 343, 4-(6-(4-(1-(2,4-dichlorophenyl)cyclopropanecarbonyl)piperazin-1-yl)pyridin-3-yl)-6-(1-methyl-1H-pyrazol-4-yl)pyrazolo[1,5-a]pyridine-3-carbonitrile] |
|  | 135 nM | CO[C@@H](C(=O)N1CCN(c2ccc(-c3cc(-c4cnn(C)c4)cn4ncc(C#N)c34)cn2)CC1)c1ccccc1 [Example 83] |
|  | 115 nM | Cn1cc(-c2cc(-c3ccc(N4CCN(C(=O)C[C@@H](O)c5ccccc5)CC4)nc3)c3c(C#N)cnn3c2)cn1 [Example 7, (R)-4-(6-(4-(3-hydroxy-3-phenylpropanoyl)piperazin-1-yl)pyridin-3-yl)-6-(1-methyl-1H-pyrazol-4-yl)pyrazolo[1,5-a]pyridine-3-carbonitrile] |
